Assay results published in patent US20200138028A1, “MICROBIOCIDAL OXADIAZOLE DERIVATIVES” (SYNGENTA PARTICIPATIONS AG, priority 2016, published 2020).

Legend:
[1] = tested on: Puccinia recondita f. sp. tritici; assay: Puccinia recondita f. sp. tritici / wheat / leaf disc curative (brown rust); assay type: in vivo; settings: foliar, 200 ppm in the applied formulation, wheat leaf segments cv. Kanzler, applied 1 day after inoculation, 6 to 8 days after application, read-out: disease control compared to untreated control leaf disks
Experimental: Leaf disks or leaf segments of various plant species are cut from plants grown in a greenhouse. The cut leaf disks or segments are placed in multiwell plates (24-well format) onto water agar. The leaf disks are sprayed with a test solution before (preventative) or after (curative) inoculation. Compounds to be tested are prepared as DMSO solutions (max. 10 mg/ml) which are diluted to the appropriate concentration with 0.025% Tween20 just before spraying. The inoculated leaf disks or segments are incubated under defined conditions (temperature, relative humidity, light, etc.) according to the respective test system. A single evaluation of disease level is carried out 3 to 14 days after inoculation, depending on the pathosystem. Percent disease control relative to the untreated check leaf disks or segments is then calculated.
Wheat leaf segments cv. Kanzler are placed on agar in multiwell plates (24-well format). The leaf segments are then inoculated with a spore suspension of the fungus. Plates were stored in darkness at 19° C. and 75% relative humidity. The formulated test compound diluted in water was applied 1 day after inoculation. The leaf segments were incubated at 19° C. and 75% relative humidity under a light regime of 12 hours light/12 hours darkness in a climate cabinet and the activity of a compound was assessed as percent disease control compared to untreated when an appropriate level of disease damage appears in untreated check leaf segments (6 to 8 days after application).
The following compounds at 200 ppm in the applied formulation give at least 80% disease control in this test when compared to untreated control leaf disks under the same conditions, which show extensive disease development.

[2] = tested on: Glomerella laqenarium (Colletotrichum laqenarium); assay: Glomerella laqenarium (Colletotrichum laqenarium) liquid culture / cucumber / preventative (anthracnose); assay type: cell-based; settings: 20 ppm in the applied formulation, liquid culture in PDB, 24° C., 3 to 4 days after application, read-out: disease control compared to untreated control (inhibition of growth, photometric)
Experimental: Mycelia fragments or conidia suspensions of a fungus prepared either freshly from liquid cultures of the fungus or from cryogenic storage, are directly mixed into nutrient broth. DMSO solutions of the test compound (max. 10 mg/ml) are diluted with 0.025% Tween20 by a factor of 50 and 10 μl of this solution is pipetted into a microtiter plate (96-well format). The nutrient broth containing the fungal spores/mycelia fragments is then added to give an end concentration of the tested compound. The test plates are incubated in the dark at 24° C. and 96% relative humidity. The inhibition of fungal growth is determined photometrically after 2 to 7 days, depending on the pathosystem, and percent antifungal activity relative to the untreated check is calculated.
Conidia of the fungus from cryogenic storage are directly mixed into nutrient broth (PDB—potato dextrose broth). After placing a (DMSO) solution of test compound into a microtiter plate (96-well format), the nutrient broth containing the fungal spores is added. The test plates are incubated at 24° C. and the inhibition of growth is measured photometrically 3 to 4 days after application.
The following compounds at 20 ppm in the applied formulation give at least 80% disease control in this test when compared to untreated control under the same conditions, which show extensive disease development.

Structure (SMILES) | melting point [°C] | pest or weed control at 200 ppm [1] [%] | inhibition at 20 ppm [2] [%]
Cc1cc(-c2noc(C(F)(F)F)n2)ccc1NC(=O)C1CC1 [Compound 1.1, N-[2-methyl-4-[5-(trifluoromethyl)-1,2,4-oxadiazol-3-yl]phenyl]cyclopropane carboxamide] | 185 to 196 |  | 
Cc1cc(-c2noc(C(F)(F)F)n2)ccc1NC(=O)c1ccccc1 [Compound 1.2, N-[2-methyl-4-[5-(trifluoromethyl)-1,2,4-oxadiazol-3-yl]phenyl]benzamide] | 173 to 176 |  | 
O=C(Nc1ccc(-c2noc(C(F)(F)F)n2)cc1F)C1CC1 [Compound 1.3, N-[2-fluoro-4-[5-(trifluoromethyl)-1,2,4-oxadiazol-3-yl]phenyl]cyclopropane carboxamide] | 160 to 162 | ≥ 80 | ≥ 80
O=C(Nc1ccc(-c2noc(C(F)(F)F)n2)cc1F)c1ccccc1 [Compound 1.4, N-[2-fluoro-4-[5-(trifluoromethyl)-1,2,4-oxadiazol-3-yl]phenyl]benzamide] | 166 to 175 |  | 
O=C(Nc1ccc(-c2noc(C(F)(F)F)n2)cc1F)C1CC1(F)F (stereo not drawn) [Compound 1.5, 2,2-difluoro-N-[2-fluoro-4-[5-(trifluoromethyl)-1,2,4-oxadiazol-3-yl]phenyl]cyclopropane carboxamide] |  | ≥ 80 | ≥ 80
O=C(Nc1ccc(-c2noc(C(F)(F)F)n2)cc1F)C1CCOC1 (stereo not drawn) [Compound 1.7, N-[2-fluoro-4-[5-(trifluoromethyl)-1,2,4-oxadiazol-3-yl]phenyl]tetrahydrofuran-3-carboxamide] |  | ≥ 80 | ≥ 80
O=C(Nc1ccc(-c2noc(C(F)(F)F)n2)cc1F)C1CCC1 [Compound 1.8, N-[2-fluoro-4-[5-(trifluoromethyl)-1,2,4-oxadiazol-3-yl]phenyl] cyclobutanecarboxamide] |  |  | ≥ 80
CC1CC1C(=O)Nc1ccc(-c2noc(C(F)(F)F)n2)cc1F (stereo not drawn) [Compound 1.9, N-[2-fluoro-4-[5-(trifluoromethyl)-1,2,4-oxadiazol-3-yl]phenyl]-2-methyl-cyclopropanecarboxamide] |  |  | ≥ 80
CC1(C(=O)Nc2ccc(-c3noc(C(F)(F)F)n3)cc2F)CC1 [Compound 1.10, N-[2-fluoro-4-[5-(trifluoromethyl)-1,2,4-oxadiazol-3-yl]phenyl]-1-methyl-cyclopropanecarboxamide] |  | ≥ 80 | ≥ 80
O=C(Nc1ccc(-c2noc(C(F)(F)F)n2)cc1F)C1CCCO1 (stereo not drawn) [Compound 1.11, N-[2-fluoro-4-[5-(trifluoromethyl)-1,2,4-oxadiazol-3-yl]phenyl]tetrahydrofuran-2-carboxamide] |  |  | ≥ 80
N#CC1(C(=O)Nc2ccc(-c3noc(C(F)(F)F)n3)cc2F)CC1 [Compound 1.12, 1-cyano-N-[2-fluoro-4-[5-(trifluoromethyl)-1,2,4-oxadiazol-3-yl]phenyl]cyclopropane carboxamide] |  | ≥ 80 | ≥ 80
O=C(CC1CC1)Nc1ccc(-c2noc(C(F)(F)F)n2)cc1F [Compound 1.13, 2-cyclopropyl-N-[2-fluoro-4-[5-(trifluoromethyl)-1,2,4-oxadiazol-3-yl]phenyl]acetamide] |  | ≥ 80 | ≥ 80
Cc1cc(-c2noc(C(F)(F)F)n2)ccc1NC(=O)C1CCOC1 (stereo not drawn) [Compound 1.16, N-[2-methyl-4-[5-(trifluoromethyl)-1,2,4-oxadiazol-3-yl]phenyl]tetrahydrofuran-3-carboxamide] |  |  | ≥ 80
Cc1cc(-c2noc(C(F)(F)F)n2)ccc1NC(=O)C1(C)CC1 [Compound 1.19, 1-methyl-N-[2-methyl-4-[5-(trifluoromethyl)-1,2,4-oxadiazol-3-yl]phenyl]cyclopropane carboxamide] |  | ≥ 80 | ≥ 80
Cc1cc(-c2noc(C(F)(F)F)n2)ccc1NC(=O)C1CCCO1 (stereo not drawn) [Compound 1.20, N-[2-methyl-4-[5-(trifluoromethyl)-1,2,4-oxadiazol-3-yl]phenyl]tetrahydrofuran-2-carboxamide] |  | ≥ 80 | ≥ 80
